According to US9937182B2, “Therapeutic strategies for the treatment of preeclampsia” (UNIVERSITY OF IOWA RESEARCH FOUNDATION, priority 2013, dated 2018):
Values joined by “and” are separate entries in the source; they are usually repeats but may differ in a detail not shown here. Equal entries are not always repeated. “Also recorded” adds a separate entry of the source.

Legend:
[1] = test system: wildtype female mice (C57Bl/6 background); experiment: Vasopressin infusion (24 ng/hr) throughout pregnancy, fetal and placental masses and resorption at GD18; format: in vivo; conditions: for Raw fetal mass (Fetus): individual fetuses; for Raw placental mass (Placenta): individual placentas
Procedure: Methods: Nine adult wildtype female mice were obtained from in-house breeding colonies that are based on the C57Bl/6 background strain. Three days before breeding, females were implanted with subcutaneous osmotic minipumps (Alzet) to continuously deliver arginine vasopressin (AVP, Sigma-Aldrich) at 24 ng/hr. Females were mated for two consecutive nights with wildtype male C57BL/6J males purchased from Jackson Laboratories. GD1 was defined based upon the presence of a vaginal sperm plug. On gestational day 18, female mice were sacrificed by CO2 asphyxiation, and fetuses and fetoplacental units were isolated by blunt dissection.

[2] = test system: C57Bl/6J female mice; experiment: Vasopressin infusion 0.24, 2.4 or 24 ng/hr during pregnancy, proteinuria and intrauterine growth restriction; format: in vivo; conditions: for fetal masses: dams infused with 24 ng/hr compared to 2.4 ng/hr vasopressin; for urine protein content: pregnant mice, GD17-GD18, vasopressin 0.24, 2.4, 24 ng/hr
Procedure: Method: Eighteen female C57BL/6J mice were obtained from the Jackson Laboratories. Subcutaneous osmotic minipumps (Alzet) were implanted to deliver vasopressin at 0.24, 2.4, or 24 ng/hr (six mice each group). After three days, mice were mated with wildtype C57BL/6J male mice for one night (thereby defining gestational day zero). On GD16, mice were placed into single-mouse metabolic cages (Nalgene) to collect urine for two consecutive nights. On GD18, mice were sacrificed to quantify and collect fetuses and placentas. Urine protein was assessed by commercially-available BCA assay (Pierce).

[3] = test system: abdominal aorta; experiment: Abdominal aortic ring vascular reactivity (organ bath); format: cell-based, mice; conditions: contractile response
Procedure: Aortic Vascular Reactivity: Abdominal aortic rings were assessed for vascular reactivity as previously described (32). Briefly, mice were euthanized by overdose of pentobarbital (50 mg, i.p.), and the abdominal aorta was quickly removed and placed in Kreb's buffer containing (in mmol/L): 118.3 NaCl, 4.7 KCl, 1.2 MgSO4, 1.2 KH2PO4, 25 NaHCO3, 2.5 CaCl2 and 11 glucose. Vascular rings (4-5 mm in length) were suspended in oxygenated Kreb's buffer (95% O2/5% CO2) in organ baths at 37° C. and connected to a force transducer via steel hooks. Resting tension was adjusted to 0.5 grams over 45 minutes. Contractile responses were tested in response to AVP (10^−10-10^−6 mol/L), phenylephrine (PE, 10^−8-3×10^−5), endothelin-1 (ET-1, 10^−10-10^−7), prostaglandin F2α (PGF2α, 10^−7-10^−4), and angiotensin II (Ang II, 10^−10-10^−7). Following sub-maximal contraction with PGF2α (40-50% of max; 3×10^−6-6×10^−6), relaxation responses to acetylcholine (10^−8-3×10^−5) and sodium nitroprusside (10^−9-10^−5) were determined.
(§1) Statistics: Data were analyzed by ANOVA with repeated measures as appropriate. Post-hoc analyses were performed using Bonferroni multiple-comparisons procedures. EC50 and maximum response calculations were performed by fitting individual dose-response data sets to a four-parameter logistic function (Hillslope method); y=min+([…])/(1+(x/EC50)^Hillslope). All mRNA fold changes were calculated using the Livak method (54). All analytical comparisons were performed using SigmaStat/SigmaPlot (Systat). All data are presented as mean±sem.

[4] = test system: 2°-branch mesenteric artery; experiment: Mesenteric artery vascular reactivity (pressurized myography); format: cell-based, mice
Procedure: Mesenteric Artery Vascular Reactivity: Secondary branches of mesenteric artery were dissected and placed in chilled oxygenated (21% O2, 5% CO2, and 74% N2) Kreb's buffer. A segment (˜1 mm long) of artery was transferred to a vessel chamber (DMT), cannulated with glass micropipettes and secured with silk ligatures. The artery was slowly pressurized to 40 mmHg without flow. After 30 min equilibration, vessel viability was tested by constriction response to 100 mM KCl. Vascular responses to PE (10-9-10-5 mol/L), AVP (10-12-10-7 mol/L), and ET-1 (10-11-10-8 mol/L) were then assessed. The artery was then superfused with calcium-free Krebs buffer containing 10-5 mol/L sodium nitroprusside and 2 mmol/L EGTA to maximally dilate the vessel. Internal and external diameters were measured at 75 mm Hg. Wall thickness, media/lumen ratio and cross sectional area (CSA) were calculated as previously described by Neves, et al. (62).
as §1

[5] = test system: C57Bl/6J mice; experiment: Vasopressin infusion (240 ng/hr) during pregnancy, preeclampsia-like phenotypes; format: in vivo
Procedure: Animal Studies: Female C57Bl/6J mice were obtained from Jackson Laboratories between 8-12 weeks of age. Osmotic minipumps infusing vasopressin (240 ng/hr) or saline vehicle were inserted into the subcutaneous space via incision between the scapulae. Following three days of recovery, females were mated with male C57Bl/6J mice. Presence of a vaginal plug indicated gestational day 0.5. Blood pressure was tracked before mating and throughout gestation by tail-cuff plethysmography. On gestational day 18, females were sacrificed for necropsy. Pup weight was recorded. Dam kidney sections were generated and imaged by electron microscopy by the University of Iowa Department of Pathology. All studies were approved by the University of Iowa Animal Care and Use Committee (ACURF #1211239).

[6] = all six pregnancies, vasopressin 24 ng/hr, GD18
[7] = average of dam 200245-2 (HD4), vasopressin 24 ng/hr, GD18
[8] = average of dam 200245-4 (HD5), vasopressin 24 ng/hr, GD18
[9] = average of dam 200301-2 (HD2), vasopressin 24 ng/hr, GD18
[10] = average of dam 200301-4 (HD3), vasopressin 24 ng/hr, GD18
[11] = average of dam 200357-1 (HD6), vasopressin 24 ng/hr, GD18
[12] = average of dam 200372-3 (HD9), vasopressin 24 ng/hr, GD18
[13] = dam 200245-2 (HD4), vasopressin 24 ng/hr, GD18
[14] = dam 200245-4 (HD5), vasopressin 24 ng/hr, GD18
[15] = dam 200301-2 (HD2), vasopressin 24 ng/hr, GD18
[16] = dam 200301-4 (HD3), vasopressin 24 ng/hr, GD18
[17] = dam 200357-1 (HD6), vasopressin 24 ng/hr, GD18
[18] = dam 200372-3 (HD9), vasopressin 24 ng/hr, GD18
[19] = vasopressin 240 ng/hr sc infusion vs saline

NC(=O)CC[C@@H]1NC(=O)[C@H](Cc2ccccc2)NC(=O)[C@H](Cc2ccc(O)cc2)NC(=O)[C@@H](N)CSSC[C@@H](C(=O)N2CCC[C@H]2C(=O)N[C@@H](CCCN=C(N)N)C(=O)NCC(N)=O)NC(=O)[C@H](CC(N)=O)NC1=O [Arginine vasopressin]
Avg mass, Fetus [1, 6]: 0.4929 g | Avg mass, Placenta [1, 6]: 0.0628 g | Resorb, total count [1, 6]: 10 | resorbed fetoplacental units [1, 6]: 17% | Avg mass, Fetus [1, 7]: 0.7741 g | Avg mass, Placenta [1, 7]: 0.0536 g | Avg mass, Fetus [1, 8]: 0.0371 g | Avg mass, Placenta [1, 8]: 0.0388 g | Avg mass, Fetus [1, 9]: 0.3741 g | Avg mass, Placenta [1, 9]: 0.0760 g | Avg mass, Fetus [1, 10]: 0.3054 g | Avg mass, Placenta [1, 10]: 0.0672 g | Avg mass, Fetus [1, 11]: 0.4660 g | Avg mass, Placenta [1, 11]: 0.0545 g | Avg mass, Fetus [1, 12]: 1.0077 g | Avg mass, Placenta [1, 12]: 0.0761 g | Raw fetal mass (Fetus) [1, 13]: 0.7964 g and 0.5962 g and 0.8258 g and 0.8183 g and 0.8336 g | Raw fetal mass (Fetus) [1, 14]: 0.0154 g and 0.0699 g and 0.0261 g | Raw fetal mass (Fetus) [1, 15]: 0.3756 g and 0.3352 g and 0.3805 g and 0.3954 g and 0.3094 g and 0.3777 g and 0.4078 g and 0.3880 g and 0.3971 g | Raw fetal mass (Fetus) [1, 16]: 0.2866 g and 0.2599 g and 0.3328 g and 0.3609 g and 0.3085 g and 0.3087 g and 0.2955 g and 0.3356 g and 0.3129 g and 0.3034 g and 0.3086 g and 0.2516 g | Raw fetal mass (Fetus) [1, 17]: 0.4865 g and 0.4962 g (2×) and 0.4780 g and 0.4092 g and 0.4543 g and 0.5241 g and 0.4999 g and 0.4399 g and 0.4501 g and 0.5057 g and 0.3521 g | Raw fetal mass (Fetus) [1, 18]: 0.9287 g and 1.0395 g and 1.1359 g and 1.0723 g and 1.0064 g and 0.9679 g and 0.9034 g | Raw placental mass (Placenta) [1, 13]: 0.0679 g and 0.0629 g and 0.0860 g and 0.0898 g and 0.0770 g and 0.0070 g and 0.0157 g and 0.0324 g and 0.0433 g | Raw placental mass (Placenta) [1, 14]: 0.0494 g and 0.0410 g and 0.0261 g and <0.01 g (5×) | Raw placental mass (Placenta) [1, 15]: 0.0687 g and 0.0810 g and 0.0828 g and 0.0796 g and 0.0638 g and 0.0840 g and 0.0936 g and 0.0477 g and 0.0827 g | Raw placental mass (Placenta) [1, 16]: 0.0315 g and 0.0762 g and 0.0747 g and 0.0876 g and 0.0710 g and 0.0789 g and 0.0620 g and 0.0687 g and 0.0669 g and 0.0714 g and 0.0640 g and 0.0529 g | Raw placental mass (Placenta) [1, 17]: 0.0599 g and 0.0709 g and 0.0663 g and 0.0509 g and 0.0480 g and 0.0648 g and 0.0767 g and 0.0678 g and 0.0426 g and 0.0471 g and 0.0569 g and 0.0499 g and 0.0067 g | Raw placental mass (Placenta) [1, 18]: 0.0725 g and 0.0866 g and 0.0753 g and 0.0810 g and 0.0706 g and 0.0702 g and 0.0766 g | fetus mass across all six pregnancies ([1]; n=48, vasopressin 24 ng/hr, GD18, P<0.0001 against 0.90 gram historical control): 0.4929±0.0397 gram/fetus | female mice that became pregnant (of nine) ([1]; vasopressin 24 ng/hr, two nights mating): Six | mice that became pregnant (of six) ([2]; 0.24 ng/hr infusion): two | mice that became pregnant (of six) ([2]; 2.4 ng/hr infusion): five | mice that became pregnant (of six) ([2]; 24 ng/hr infusion): three | preterm labor ([2]; 24 ng/hr vasopressin infusion group, gestational day 17): one pregnant mouse exhibited preterm labor | fetal masses ([2]; GD18, listed as Vasopressin): dose-dependent intrauterine growth restriction | fetal masses ([2]; GD18, listed as vasopressin): significantly suppressed | urine protein content ([2]; listed as Vasopressin): dose-dependent proteinuria | urine protein content ([2]; listed as vasopressin): elevated in a dose-dependent manner | placental masses ([2]; vasopressin 0.24, 2.4, 24 ng/hr, GD18): indistinguishable across treatment groups | Maximum Response ([3]; male Control mice): 0.29 ± 0.03 g | Maximum Response ([3]; male sRA mice): 0.12 ± 0.01 g | Maximum Response ([4]; male Control mice): 52.5 ± 3.2% | Maximum Response ([4]; male sRA mice): 17.3 ± 6.5 % | proteinuria [5, 19]: apparent proteinuria | rate of pregnancy (fecundity) [5, 19]: significantly reduced the rate of pregnancy; also recorded: significantly reduced fecundity | renal cortex electron microscopy [5, 19]: pathognomic glomerular endotheliosis | blood pressure in pregnancy ([5]; vasopressin 240 ng/hr sc infusion vs saline, tail-cuff): robust increase in blood pressure; also recorded: appears to induce hypertension | fetal growth ([5]; vasopressin 240 ng/hr sc infusion, gestational day 18): substantial fetal growth restriction
